Here are results for 24 compounds from ChEMBL document CHEMBL3637782, “GSK Tres Cantos Follow-up TB Screening Data” (2016).

Series [1] has as its system Mycobacterium tuberculosis H37Rv. Kind of series: GSK_TB: Minimum inhibitory concentration against H37Rv stain of Mycobacterium tuberculosis using MABA method. As to conditions: ATCC25618. The class given is functional.
The test system is the same in series [2]. Description: GSK_TB: Inhibition of the intracellular growth of Mycobacterium tuberculosis (pXC50). The class given is functional, ATCC25618.
Series [3] has as its system HepG2. Description: GSK_TB: The cytotoxicity against HepG2 cells expressed as IC50. The note with it: Homo sapiens. Type of series: functional, cell-based.
Series [4] is described as follows: GSK_TB: Kinetic solubility of the compound in phosphate buffered saline at pH 7.4 after 1 hr by CLND method. The class given is physicochemical.
A short description of series [5]: GSK_TB: Lipophilicity, log D of the compound at pH 7.4 by ChromlogD analysis. The class given is physicochemical. The note with it: buffer.
A short description of series [6]: GSK_TB: AVG_CHROM_LOGP. Type of series: physicochemical.

Structures are written as SMILES. Converted amounts (≈) assume the structure as drawn.

The compound `CCCC/C=C/c1cc2ccncc2cc1OC1CCNCC1` gave an MIC in series [1] of 1.6 µM (≈ 0.497 µg/mL). Besides, in series [2], the pXC50 is 5.9. Besides, the IC50 in series [3] was 16 µM. In addition, in series [4], the solubility (kinetic) at 1 h is 36 µg/mL (≈ 116 µM). The Lipophilicity in series [5] turned out to be 3.61; in series [6] it was 7.3475.

`O=C(NCc1ccco1)N1CCN(Cc2ccc(Cl)s2)CC1` had an MIC in series [1] of 2 µM (≈ 0.68 µg/mL). For the same compound, in series [2], the pXC50 amounted to 5.6. The same compound had an IC50 in series [3] greater than 100 µM. For the same compound, the solubility (kinetic) at 1 h in series [4] was found to be 98 µg/mL (≈ 288 µM). The values for the Lipophilicity in series [5] and in series [6] were 4.82 and 4.8996, respectively.

For the compound `NCC(c1cccs1)S(=O)(=O)c1ccccc1` (centres undefined), the MIC in series [1] came to 2 µM (≈ 0.535 µg/mL). This compound also returned a half-inhibitory concentration (IC50) in series [3] of 32 µM. In series [4], this compound showed a kinetic solubility at 1 h of no less than 134 µg/mL. The Lipophilicity worked out at 2.5 in series [5] and 2.5334 in series [6].

Turning to `NS(=O)(=O)c1ccc(Nc2cnc3ccccc3n2)cc1`, the MIC in series [1] came to 2 µM (≈ 0.601 µg/mL). This compound yielded a pXC50 in series [2] of less than 4.3. Also, in series [3], the IC50 is greater than 100 µM. This compound also returned a kinetic solubility at 1 h in series [4] of 112 µg/mL (≈ 373 µM). The Lipophilicity in series [5] worked out at 1.07; in series [6], 2.5171.

In series [1], `CNc1snc(C)c1C(=O)NCCOc1ccc(OC)cc1` showed an MIC of 2.5 µM (≈ 0.804 µg/mL). The compound also yielded a pXC50 in series [2] of 5.7. Further, the 50% inhibitory concentration (IC50) in series [3] was greater than 100 µM. In series [4], this compound gave a kinetic solubility at 1 h of 121 µg/mL (≈ 376 µM). For the same compound, the figures for the Lipophilicity in series [5] and in series [6] were 4.24 and 4.2469, respectively.

`Nc1ccc(C(O)CNCCc2ccccc2)cc1O` (centres undefined): inhibition of growth in series [1] (MIC) required 2.9 µM (≈ 0.79 µg/mL). Moreover, in series [2], the pXC50 is reported as 4.97. This compound yielded an IC50 in series [3] of 50 µM. Besides, the kinetic solubility at 1 h in series [4] was determined as 53 µg/mL (≈ 195 µM). The Lipophilicity in series [5] was found to be 0.97; in series [6] it was 1.7338.

`NC(=O)c1ccc(CN(C2CC2)S(=O)(=O)c2ccccc2F)cc1`: the MIC in series [1] was found to be 3.75 µM (≈ 1.31 µg/mL). The compound further gave a pXC50 in series [2] of 6.7. This compound also displayed an IC50 in series [3] greater than 100 µM. In addition, in series [4], the solubility (kinetic) at 1 h turned out to be 133 µg/mL (≈ 382 µM). Moreover, the Lipophilicity in series [5] came to 3.75; in series [6] it was 3.79.

In series [1], `NC(=O)c1cc2ccc(CC(=O)c3cccs3)cc2s1` registered an MIC of 3.8 µM (≈ 1.15 µg/mL). This compound showed a pXC50 in series [2] of 6. This compound also registered an IC50 in series [3] greater than 100 µM. The same compound gave a solubility (kinetic) at 1 h in series [4] of 8 µg/mL (≈ 26.5 µM). Besides, the Lipophilicity in series [5] stood at 3.62; in series [6] it was 3.7247.

`Clc1nnc(N2CCCC2)c2ccccc12` yielded an MIC in series [1] of 4 µM (≈ 0.935 µg/mL). In series [2], this compound yielded a pXC50 of 5.8. In series [3], the IC50 was greater than 100 µM. The compound also registered a solubility (kinetic) at 1 h in series [4] of no less than 100 µg/mL. For the same compound, the Lipophilicity was determined as 4.41 in series [5] and 4.4101 in series [6].

Compound `Cc1nc(Nc2cnn(Cc3ccccc3F)c2)c2nn(C)c(C)c2n1` returned a minimum inhibitory concentration (MIC) in series [1] of 4 µM (≈ 1.41 µg/mL). In addition, in series [2], the pXC50 stood at 6. The compound further registered an IC50 in series [3] greater than 100 µM. Also, in series [4], the solubility (kinetic) at 1 h stood at 23 µg/mL (≈ 65.5 µM). Further, the Lipophilicity in series [5] worked out at 3.41; in series [6], 3.4146.

In series [1], `CCOCn1ccc(NS(=O)(=O)c2ccc(N)cc2)nc1=O` registered an MIC of 4.7 µM (≈ 1.52 µg/mL). In addition, in series [2], the pXC50 was determined as 4.9. In series [3], this compound had an IC50 greater than 100 µM. Besides, the kinetic solubility at 1 h in series [4] came out at 52 µg/mL (≈ 160 µM). Also, the Lipophilicity stood at 0.66 in series [5] and 0.7057 in series [6].

As to `COc1ccc(Nc2nc(N[C@@H]3CCNC3)nc3cc[nH]c(=O)c23)cc1NC(=O)c1ccccc1`, in series [1], the MIC was 5 µM (≈ 2.36 µg/mL). The same compound showed a pXC50 in series [2] of 5.5. The compound further had a concentration for half-maximal inhibition (IC50) in series [3] of 25 µM. Moreover, in series [4], the solubility (kinetic) at 1 h was 106 µg/mL (≈ 226 µM). In addition, the results for the Lipophilicity in series [5] and in series [6] were 2.41 and 3.1698, respectively.

In turn, `N#Cc1ncn(-c2ccc3nnc(C(F)(F)F)n3n2)n1` came in with an MIC in series [1] of 5 µM (≈ 1.4 µg/mL). In series [2], this compound gave a pXC50 of less than 4.3. The IC50 in series [3] is greater than 100 µM. The solubility (kinetic) at 1 h in series [4] is no less than 105 µg/mL. The Lipophilicity came out at 3.31 in series [5] and 3.3167 in series [6].

Compound `Cn1cc(CCNC(=O)Nc2ccc(N3CCCCC3)nc2)cn1` showed a minimal inhibitory concentration (MIC) in series [1] of 5 µM (≈ 1.64 µg/mL). Moreover, in series [2], the pXC50 stood at 4.7. For the same compound, in series [3], the IC50 was greater than 100 µM. Further, the Lipophilicity in series [5] was 2.97; in series [6], 2.974.

Turning to `CC(C)N(C(=O)CNc1ccccc1Nc1ccccc1)c1ccccc1`, in series [1], the MIC was found to be 5.6 µM (≈ 2.01 µg/mL). Also, the pXC50 in series [2] was found to be 5.7. The IC50 in series [3] was determined as 50 µM. For the same compound, the solubility (kinetic) at 1 h in series [4] is 8 µg/mL (≈ 22.3 µM). Besides, the Lipophilicity amounted to 7.73 in series [5] and 8.1308 in series [6].

Compound `COc1ccc(Nc2ncccc2N)cc1` yielded an MIC in series [1] of 5.6 µM (≈ 1.21 µg/mL). In series [2], this compound yielded a pXC50 of 6.2. This compound displayed an IC50 in series [3] of 63 µM. The same compound returned a kinetic solubility at 1 h in series [4] of 18 µg/mL (≈ 83.6 µM). Moreover, the Lipophilicity in series [5] was 1.45; in series [6], 1.44.

On to `CC1CC1c1ccc(CN2CCc3nc(Nc4ccccc4)sc3CC2)o1` (centres undefined), for which 5.6 µM (≈ 2.13 µg/mL) was the least that counted as inhibitory in series [1] (MIC). In series [3], this compound yielded an IC50 of 40 µM. This compound also yielded a solubility (kinetic) at 1 h in series [4] of 54 µg/mL (≈ 142 µM). In addition, the results for the Lipophilicity in series [5] and in series [6] were 7.64 and 8.1798, respectively.

In the case of `COC(=O)c1ccc(Oc2ccc(-c3csc(C)n3)cc2F)nn1`, in series [1], the lowest concentration to inhibit growth (MIC) was 5.6 µM (≈ 1.93 µg/mL). In series [2], the pXC50 was less than 4.3. In addition, the IC50 in series [3] is greater than 100 µM. The same compound had a kinetic solubility at 1 h in series [4] of 17 µg/mL (≈ 49.2 µM). In addition, the Lipophilicity in series [5] stood at 4.83; in series [6], 4.8996.

`CC(C)c1noc(N2CCC([C@H](C)Oc3cnc(-c4ccc(S(C)(=O)=O)c(F)c4)cn3)CC2)n1`: the lowest concentration to inhibit growth in series [1] (MIC) was 6 µM (≈ 2.94 µg/mL). Also, in series [2], the pXC50 was 5.2. Also, half-maximal inhibition in series [3] (IC50) required 25 µM. The same compound showed a kinetic solubility at 1 h in series [4] of 13 µg/mL (≈ 26.6 µM). Further, the Lipophilicity in series [5] is recorded as 6.69.

In series [1], `O=C(O)CCc1nc2ccccc2oc1=O` registered an MIC of 8 µM (≈ 1.75 µg/mL). The pXC50 in series [2] is given as less than 4.3. In addition, the concentration for half-maximal inhibition (IC50) in series [3] was greater than 100 µM. In series [4], this compound registered a solubility (kinetic) at 1 h of 63 µg/mL (≈ 287 µM). The Lipophilicity in series [5] stood at 0.04; in series [6] it was 2.3212.

Consider `N#Cc1cccc(-c2ccc(NC[C@H]3CC[C@]4(CC3)CN(c3cccnn3)C(=O)O4)nc2)c1`, for which the MIC in series [1] was 10 µM (≈ 4.41 µg/mL). The same compound returned a pXC50 in series [2] of 5.6. The IC50 in series [3] stood at 40 µM. This compound displayed a kinetic solubility at 1 h in series [4] of 11 µg/mL (≈ 25 µM). Further, the Lipophilicity in series [5] is listed as 4.96; in series [6], 4.9649.

As to `Cc1ccc2c(c1)c(=O)cc(C(F)(F)F)n2CCNC(=O)c1ccccn1`, it took 10 µM (≈ 3.75 µg/mL) to inhibit growth in series [1] (MIC). This compound registered a pXC50 in series [2] of 5.6. Also, the IC50 in series [3] is greater than 100 µM. The kinetic solubility at 1 h in series [4] was determined as 6 µg/mL (≈ 16 µM). Also, the Lipophilicity in series [5] stood at 5.84; in series [6] it was 6.1236.

In the case of `Fc1cccc(Oc2cc(C3CCCNC3)nc(-c3ccncc3)n2)c1` (centres undefined), the MIC in series [1] was found to be 10 µM (≈ 3.5 µg/mL). In series [3], this compound gave an IC50 of 50 µM. Also, the kinetic solubility at 1 h in series [4] was found to be 64 µg/mL (≈ 183 µM). Moreover, the Lipophilicity in series [5] turned out to be 2.9; in series [6] it was 5.1281.

`Cc1c(C(=O)NCCOc2ccccc2)[nH]c2c1C(=O)CCC2` had a minimal inhibitory concentration (MIC) in series [1] of 10 µM (≈ 3.12 µg/mL). Moreover, the pXC50 in series [2] turned out to be 5. The same compound gave an IC50 in series [3] of 100 µM. The same compound showed a solubility (kinetic) at 1 h in series [4] of 46 µg/mL (≈ 147 µM). Besides, the Lipophilicity in series [5] is 3.62; in series [6], 3.8226.
